Experimental data taken from ChEMBL document CHEMBL1671750, “Emergence and molecular characterization of extensively drug-resistant Mycobacterium tuberculosis clinical isolates from the Delhi Region in India” (2010).
Converted amounts (≈) assume the structure as drawn. The source made the active and inactive calls. The rule behind the calls is not given here.

Key:
[1] = tested on: Mycobacterium tuberculosis; experiment: Antimycobacterial activity against extensively drug-resistant Mycobacterium tuberculosis isolate 2403 obtained from sputum of patient at 4 ug/ml by Bactec MGIT960 modified proportion method; format: functional, organism-based
[2] = tested on: Mycobacterium tuberculosis; experiment: Antimycobacterial activity against extensively drug-resistant Mycobacterium tuberculosis isolate 2301 obtained from sputum of patient at 4 ug/ml by Bactec MGIT960 modified proportion method; format: functional, organism-based
[3] = tested on: Mycobacterium tuberculosis; experiment: Antimycobacterial activity against extensively drug-resistant Mycobacterium tuberculosis isolate 2911 obtained from sputum of patient at 4 ug/ml by Bactec MGIT960 modified proportion method; format: functional, organism-based
[4] = tested on: Mycobacterium tuberculosis; experiment: Antimycobacterial activity against extensively drug-resistant Mycobacterium tuberculosis isolate 2474 obtained from sputum of patient at 4 ug/ml by Bactec MGIT960 modified proportion method; format: functional, organism-based
[5] = tested on: Mycobacterium tuberculosis; experiment: Antimycobacterial activity against extensively drug-resistant Mycobacterium tuberculosis isolate 625 horboring rpoB S531L/G566R/I569L, katG S315T/R463L, gyrA A90V/S95T, rrs A1401G by CLSI method; format: functional
[6] = tested on: Mycobacterium tuberculosis; experiment: Antimycobacterial activity against extensively drug-resistant Mycobacterium tuberculosis isolate 761 horboring rpoB S531L/Q510P, katG S315T/R463L, gyrA D94N/S95T, rrs G1484T by CLSI method; format: functional
[7] = tested on: Mycobacterium tuberculosis; experiment: Antimycobacterial activity against extensively drug-resistant Mycobacterium tuberculosis isolate 2301 horboring rpoB S531L, katG R463L/E217G, gyrA D94N/S95T, rrs A1401G by CLSI method; format: functional
[8] = tested on: Mycobacterium tuberculosis; experiment: Antimycobacterial activity against extensively drug-resistant Mycobacterium tuberculosis isolate 2474 horboring rpoB H526Y, katG D329A/R463L, gyrA D94G/S95T, rrs A1401G by CLSI method; format: functional
[9] = tested on: Mycobacterium tuberculosis; experiment: Antimycobacterial activity against extensively drug-resistant Mycobacterium tuberculosis isolate 2911 horboring rpoB D516V, katG S315T/R463L, gyrA D94G/S95T/R128S/Y129C, rrs A1401G by CLSI method; format: functional
[10] = tested on: Mycobacterium tuberculosis; experiment: Antimycobacterial activity against extensively drug-resistant Mycobacterium tuberculosis H37Rv by CLSI method; format: functional
[11] = tested on: Mycobacterium tuberculosis; experiment: Antimycobacterial activity against extensively drug-resistant Mycobacterium tuberculosis isolate 625 obtained from sputum of patient at 4 ug/ml by Bactec MGIT960 modified proportion method; format: functional, organism-based
[12] = tested on: Mycobacterium tuberculosis; experiment: Antimycobacterial activity against extensively drug-resistant Mycobacterium tuberculosis isolate 761 obtained from pus of patient at 4 ug/ml by Bactec MGIT960 modified proportion method; format: functional, organism-based
[13] = tested on: Mycobacterium tuberculosis; experiment: Antimycobacterial activity against extensively drug-resistant Mycobacterium tuberculosis isolate 2403 obtained from sputum of patient at 100 ug/ml by Bactec MGIT960 modified proportion method; format: functional, organism-based
[14] = tested on: Mycobacterium tuberculosis; experiment: Antimycobacterial activity against extensively drug-resistant Mycobacterium tuberculosis isolate 2301 obtained from sputum of patient at 100 ug/ml by Bactec MGIT960 modified proportion method; format: functional, organism-based
[15] = tested on: Mycobacterium tuberculosis; experiment: Antimycobacterial activity against extensively drug-resistant Mycobacterium tuberculosis isolate 2911 obtained from sputum of patient at 100 ug/ml by Bactec MGIT960 modified proportion method; format: functional, organism-based
[16] = tested on: Mycobacterium tuberculosis; experiment: Antimycobacterial activity against extensively drug-resistant Mycobacterium tuberculosis isolate 2474 obtained from sputum of patient at 100 ug/ml by Bactec MGIT960 modified proportion method; format: functional, organism-based
[17] = tested on: Mycobacterium tuberculosis; experiment: Antimycobacterial activity against extensively drug-resistant Mycobacterium tuberculosis isolate 625 obtained from sputum of patient at 100 ug/ml by Bactec MGIT960 modified proportion method; format: functional, organism-based
[18] = tested on: Mycobacterium tuberculosis; experiment: Antimycobacterial activity against extensively drug-resistant Mycobacterium tuberculosis isolate 761 obtained from pus of patient at 100 ug/ml by Bactec MGIT960 modified proportion method; format: functional, organism-based
[19] = tested on: Mycobacterium tuberculosis; experiment: Antimycobacterial activity against extensively drug-resistant Mycobacterium tuberculosis isolate 2403 obtained from sputum of patient at 0.1 ug/ml by Bactec MGIT960 modified proportion method; format: functional, organism-based
[20] = tested on: Mycobacterium tuberculosis; experiment: Antimycobacterial activity against extensively drug-resistant Mycobacterium tuberculosis isolate 2301 obtained from sputum of patient at 0.1 ug/ml by Bactec MGIT960 modified proportion method; format: functional, organism-based
[21] = tested on: Mycobacterium tuberculosis; experiment: Antimycobacterial activity against extensively drug-resistant Mycobacterium tuberculosis isolate 2911 obtained from sputum of patient at 0.1 ug/ml by Bactec MGIT960 modified proportion method; format: functional, organism-based
[22] = tested on: Mycobacterium tuberculosis; experiment: Antimycobacterial activity against extensively drug-resistant Mycobacterium tuberculosis isolate 2474 obtained from sputum of patient at 0.1 ug/ml by Bactec MGIT960 modified proportion method; format: functional, organism-based
[23] = tested on: Mycobacterium tuberculosis; experiment: Antimycobacterial activity against extensively drug-resistant Mycobacterium tuberculosis isolate 625 obtained from sputum of patient at 0.1 ug/ml by Bactec MGIT960 modified proportion method; format: functional, organism-based
[24] = tested on: Mycobacterium tuberculosis; experiment: Antimycobacterial activity against extensively drug-resistant Mycobacterium tuberculosis isolate 761 obtained from pus of patient at 0.1 ug/ml by Bactec MGIT960 modified proportion method; format: functional, organism-based
[25] = tested on: Mycobacterium tuberculosis; experiment: Antimycobacterial activity against extensively drug-resistant Mycobacterium tuberculosis isolate 2403 obtained from sputum of patient at 2 ug/ml by Bactec MGIT960 modified proportion method; format: functional, organism-based
[26] = tested on: Mycobacterium tuberculosis; experiment: Antimycobacterial activity against extensively drug-resistant Mycobacterium tuberculosis isolate 2301 obtained from sputum of patient at 2 ug/ml by Bactec MGIT960 modified proportion method; format: functional, organism-based
[27] = tested on: Mycobacterium tuberculosis; experiment: Antimycobacterial activity against extensively drug-resistant Mycobacterium tuberculosis isolate 2911 obtained from sputum of patient at 2 ug/ml by Bactec MGIT960 modified proportion method; format: functional, organism-based
[28] = tested on: Mycobacterium tuberculosis; experiment: Antimycobacterial activity against extensively drug-resistant Mycobacterium tuberculosis isolate 761 obtained from pus of patient at 2 ug/ml by Bactec MGIT960 modified proportion method; format: functional, organism-based
[29] = tested on: Mycobacterium tuberculosis; experiment: Antimycobacterial activity against extensively drug-resistant Mycobacterium tuberculosis isolate 625 obtained from sputum of patient at 2 ug/ml by Bactec MGIT960 modified proportion method; format: functional, organism-based

For `NC[C@H]1O[C@H](O[C@H]2[C@H](O)[C@@H](O[C@H]3O[C@H](CO)[C@@H](O)[C@H](N)[C@H]3O)[C@H](N)C[C@@H]2N)[C@H](O)[C@@H](O)[C@@H]1O` [KANAMYCIN], the Activity [1] was “inactive”, the Activity [2] was “inactive” and the Activity [3] was “inactive”. The Activity [4] was “Active”, the MIC [5] was >16 µg/mL and the MIC [6] was >16 µg/mL. For the same molecule, the MIC [7] was >16 µg/mL, the MIC [8] was >16 µg/mL and the MIC [9] was >16 µg/mL. The MIC [10] was 2 µg/mL (≈ 4.13 µM), the Activity [11] was “inactive” and the Activity [12] was “inactive”.
`CCc1cc(C(N)=S)ccn1` [ETHIONAMIDE] showed an MIC [5] of 4 µg/mL (≈ 24.1 µM), an MIC [6] of 1 µg/mL (≈ 6.02 µM) and an MIC [7] of 2 µg/mL (≈ 12 µM). The MIC [8] was >16 µg/mL, the MIC [9] was 4 µg/mL (≈ 24.1 µM) and the MIC [10] was 0.5 µg/mL (≈ 3.01 µM).
For `NC(=O)c1cnccn1`, the Activity [13] was “inactive”, the Activity [14] was “inactive” and the Activity [15] was “Active”. The Activity [16] was “inactive”, the Activity [17] was “inactive” and the Activity [18] was “inactive”.
`C[C@@H]1CN(c2c(F)c(N)c3c(=O)c(C(=O)O)cn(C4CC4)c3c2F)C[C@H](C)N1` [SPARFLOXACIN] showed an MIC [5] of 8 µg/mL (≈ 20.4 µM), an MIC [6] of 16 µg/mL (≈ 40.8 µM) and an MIC [7] of 16 µg/mL (≈ 40.8 µM). For the same molecule, the MIC [8] was 16 µg/mL (≈ 40.8 µM), the MIC [9] was >16 µg/mL and the MIC [10] was 0.5 µg/mL (≈ 1.27 µM).
For `NNC(=O)c1ccncc1` [ISONIAZID], the Activity [19] was “inactive”, the Activity [20] was “inactive” and the Activity [21] was “inactive”. The Activity [22] was “inactive”, the MIC [5] was >16 µg/mL and the MIC [6] was 4 µg/mL (≈ 29.2 µM). It also gave an MIC [7] of 0.5 µg/mL (≈ 3.65 µM), an MIC [8] of 1 µg/mL (≈ 7.29 µM) and an MIC [9] of 4 µg/mL (≈ 29.2 µM). The MIC [10] was 0.25 µg/mL (≈ 1.82 µM), the Activity [23] was “inactive” and the Activity [24] was “inactive”.
With `C[C@H]1COc2c(N3CCN(C)CC3)c(F)cc3c(=O)c(C(=O)O)cn1c23` the Activity [25] was “inactive”, the Activity [26] was “inactive” and the Activity [27] was “inactive”. The Activity [28] was “inactive”.
`COc1c(N2C[C@@H]3CCCN[C@@H]3C2)c(F)cc2c(=O)c(C(=O)O)cn(C3CC3)c12` was tested, and the Activity [25] was “inactive”, the Activity [26] was “inactive” and the Activity [27] was “inactive”. The Activity [29] was “inactive” and the Activity [28] was “inactive”.
